The source of these data is BindingDB's records for doi:10.1021/ml2001455 (2011).

Each structure is given as a SMILES string. A value given as a limit tells only on which side of the number the result lay.

For assay [1], the target named is T1, Mitogen-activated protein kinase 14 (Homo sapiens, UniProt Q16539). The assay can be described thus: Inhibition of p38alpha in human PBMC assessed as inhibition of LPS-induced TNFalpha production after 16 to 18 hrs by ELISA. (In general: ELISA stands for enzyme-linked immunosorbent assay.)
Assay [2] has as its target T1, Mitogen-activated protein kinase 14. The assay can be described thus: Inhibition of p38alpha kinase using KRELVEPLTPSGEAPNQALLR as substrate for 20 mins by lactate dehydrogenase-coupled spectrophotometric assay.
The target is the same in assay [3]. The assay can be described thus: Inhibition of p38alpha in human PBMC assessed as inhibition of LPS-induced IL1beta production after 16 to 18 hrs by ELISA.

T1 sequence (Q16539 whole entry): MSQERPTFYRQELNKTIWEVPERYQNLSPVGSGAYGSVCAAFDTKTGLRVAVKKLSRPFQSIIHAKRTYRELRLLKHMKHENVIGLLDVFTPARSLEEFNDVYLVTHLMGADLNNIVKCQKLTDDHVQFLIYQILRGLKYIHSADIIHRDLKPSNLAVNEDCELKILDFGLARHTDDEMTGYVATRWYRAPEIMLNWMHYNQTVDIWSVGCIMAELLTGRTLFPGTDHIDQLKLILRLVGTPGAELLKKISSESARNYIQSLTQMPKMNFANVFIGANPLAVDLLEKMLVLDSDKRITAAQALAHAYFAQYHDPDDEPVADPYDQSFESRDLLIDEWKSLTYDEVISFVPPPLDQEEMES

For the compound `COc1ccccc1-c1c(=O)ncn2nc(Sc3ccccc3)ccc12`, in assay [1], the IC50 – broadly, the concentration that inhibits the measured activity by half – is over 20 µM.
For the compound `COc1ccc(-c2c(=O)ncn3nc(Sc4ccccc4)ccc23)cc1`, the half-inhibitory concentration (IC50) in assay [2] and in assay [1] was over 20 µM throughout.
As to `O=c1ncn2nc(Sc3ccccc3)ccc2c1-c1ccc(Cl)c(Cl)c1`, the IC50 in assay [2], in assay [3] and in assay [1] was over 20 µM each time.
